From US20200107549A1, “Enhancement of seed germination and plant growth under conditions of stress with pterostilbene, ellagic acid, nicotinamide riboside, and their combinations” (priority 2018, published 2020)

System: rice seeds
Assay: rice seed germination in artificial paddy
Type: in vivo, Oryza sativa (Rice)
Conditions: seeds incubated in 1 micromolar NR; water deprivation paddy, 37 seeds; only 1 seed germinated in that paddy's control
Method: Conditions of “water deprivation” in this specification refers to the administration of less water than required for a seed to germinate typically. In the experiments described below, seeds subjected to a condition of “water deprivation” were given 2 mL of water 3 times a week, as opposed to 5 mL. In the rice experiment, the seeds subjected to “water deprivation” were not given any water after their planting in the artificial paddy. 5 mL of the solutions of the 3 compounds or combinations was placed in a small size weigh boats, along with water as the control. Up to 50 seeds were placed in the weigh boats. Incubation periods ranged from 18-24 hours at room temperature (recorded range of 55-65° F.). The seeds were then either placed in a germination chamber or planted in potting soil, as described below. For the rice plants, an artificial paddy field was built using two plastic bins filled with soil, and filled with water to a depth of 4 inches. A divider comprising of sticks was placed to delineate the experimental conditions comparing water soaked seeds or NR soaked seeds. In one paddy, water was replenished until germination was observed; the other received no added water. The bins were left outside for a total of 6 weeks; the daily temperatures ranged between 50 F to 95 F, and no rainfall was recorded during the experimental period. […]

NC(=O)c1ccc[n+]([C@@H]2O[C@H](CO)[C@@H](O)[C@H]2O)c1 [NR, Nicotinamide riboside]
seeds germinated: 32%
